From ChEMBL document CHEMBL3112408, “1,2,3-triazole-, arylamino- and thio-substituted 1,4-naphthoquinones: potent antitumor activity, electrochemical aspects, and bioisosteric replacement of C-ring-modified lapachones” (Bioorg Med Chem, 2014)

Tested on: PC-3
Assay: Cytotoxicity against human PC3 cells assessed as cell viability after 72 hrs by MTT assay
Format: functional, cell-based
Conditions: PC-3, 72 h

In order of falling IC50:
1. CCCCCCc1cn(C2C3=C(OC2(C)C)C(=O)c2ccccc2C3=O)nn1 (configuration not stated)  10.2 µM
2. CC1(C)OC2=C(C(=O)c3ccccc3C2=O)C1n1cc(-c2ccccc2)nn1 (configuration not stated)  5.82 µM
3. CC1(C)OC2=C(C(=O)c3ccccc3C2=O)C1n1cc(C2CCCCC2)nn1 (configuration not stated)  4.29 µM

Tested on: SF-295
Assay: Cytotoxicity against human SF295 cells assessed as cell viability after 72 hrs by MTT assay
Format: functional, cell-based
Conditions: SF-295, 72 h

In order of rising IC50:
1. CC1(C)OC2=C(C(=O)c3ccccc3C2=O)C1n1cc(C2CCCCC2)nn1 (configuration not stated)  3.18 µM
2. CC1(C)OC2=C(C(=O)c3ccccc3C2=O)C1n1cc(-c2ccccc2)nn1 (configuration not stated)  3.44 µM
3. CCCCCCc1cn(C2C3=C(OC2(C)C)C(=O)c2ccccc2C3=O)nn1 (configuration not stated)  11.2 µM

Tested on: OVCAR-8
Assay: Cytotoxicity against human OVCAR8 cells assessed as cell viability after 72 hrs by MTT assay
Format: functional, cell-based
Conditions: OVCAR-8, 72 h

In order of falling IC50:
1. CC1(C)OC2=C(C(=O)c3ccccc3C2=O)C1n1cc(-c2ccccc2)nn1 (configuration not stated)  7.22 µM
2. CC1(C)OC2=C(C(=O)c3ccccc3C2=O)C1n1cc(C2CCCCC2)nn1 (configuration not stated)  5.38 µM
3. CCCCCCc1cn(C2C3=C(OC2(C)C)C(=O)c2ccccc2C3=O)nn1 (configuration not stated)  5.35 µM

Tested on: MCF7
Assay: Cytotoxicity against human MCF7 cells assessed as cell viability after 72 hrs by MTT assay
Format: functional, cell-based
Conditions: MCF7, 72 h

In order of rising IC50:
1. CC1(C)OC2=C(C(=O)c3ccccc3C2=O)C1n1cc(C2CCCCC2)nn1 (configuration not stated)  5.78 µM
2. CC1(C)OC2=C(C(=O)c3ccccc3C2=O)C1n1cc(-c2ccccc2)nn1 (configuration not stated)  6.95 µM
3. CCCCCCc1cn(C2C3=C(OC2(C)C)C(=O)c2ccccc2C3=O)nn1 (configuration not stated)  9.41 µM

Tested on: DU-145
Assay: Cytotoxicity against human DU145 cells assessed as cell viability after 72 hrs by MTT assay
Format: functional, cell-based
Conditions: DU-145, 72 h

In order of falling IC50:
1. CCCCCCc1cn(C2C3=C(OC2(C)C)C(=O)c2ccccc2C3=O)nn1 (configuration not stated)  9.88 µM
2. CC1(C)OC2=C(C(=O)c3ccccc3C2=O)C1n1cc(C2CCCCC2)nn1 (configuration not stated)  5.48 µM
3. CC1(C)OC2=C(C(=O)c3ccccc3C2=O)C1n1cc(-c2ccccc2)nn1 (configuration not stated)  4.68 µM

Tested on: MDA-MB-435
Assay: Cytotoxicity against human MDA-MB-435 cells assessed as cell viability after 72 hrs by MTT assay
Format: functional, cell-based
Conditions: MDA-MB-435, 72 h

In order of rising IC50:
1. CC1(C)OC2=C(C(=O)c3ccccc3C2=O)C1n1cc(C2CCCCC2)nn1 (configuration not stated)  2.76 µM
2. CCCCCCc1cn(C2C3=C(OC2(C)C)C(=O)c2ccccc2C3=O)nn1 (configuration not stated)  3.98 µM
3. CC1(C)OC2=C(C(=O)c3ccccc3C2=O)C1n1cc(-c2ccccc2)nn1 (configuration not stated)  4.95 µM

Tested on: MX1
Assay: Cytotoxicity against human MX1 cells assessed as cell viability after 72 hrs by MTT assay
Format: functional, cell-based
Conditions: MX1, 72 h

In order of falling IC50:
1. CCCCCCc1cn(C2C3=C(OC2(C)C)C(=O)c2ccccc2C3=O)nn1 (configuration not stated)  7.33 µM
2. CC1(C)OC2=C(C(=O)c3ccccc3C2=O)C1n1cc(-c2ccccc2)nn1 (configuration not stated)  5.92 µM
3. CC1(C)OC2=C(C(=O)c3ccccc3C2=O)C1n1cc(C2CCCCC2)nn1 (configuration not stated)  4.21 µM

Tested on: not listed separately
Assay: Cytotoxicity against human HCT8 cells assessed as cell viability after 72 hrs by MTT assay
Format: functional, cell-based
Conditions: HCT-8, 72 h

In order of rising IC50:
1. CCCCCCc1cn(C2C3=C(OC2(C)C)C(=O)c2ccccc2C3=O)nn1 (configuration not stated)  5.32 µM
2. CC1(C)OC2=C(C(=O)c3ccccc3C2=O)C1n1cc(C2CCCCC2)nn1 (configuration not stated)  6.7 µM
3. CC1(C)OC2=C(C(=O)c3ccccc3C2=O)C1n1cc(-c2ccccc2)nn1 (configuration not stated)  9.07 µM

Tested on: HL-60
Assay: Cytotoxicity against human HL60 cells assessed as cell viability after 72 hrs by MTT assay
Format: functional, cell-based
Conditions: HL-60, 72 h

In order of rising IC50:
1. CCCCCCc1cn(C2C3=C(OC2(C)C)C(=O)c2ccccc2C3=O)nn1 (configuration not stated)  1.9 µM
2. CC1(C)OC2=C(C(=O)c3ccccc3C2=O)C1n1cc(C2CCCCC2)nn1 (configuration not stated)  2.7 µM
3. CC1(C)OC2=C(C(=O)c3ccccc3C2=O)C1n1cc(-c2ccccc2)nn1 (configuration not stated)  4.34 µM

Tested on: V79
Assay: Cytotoxicity against chinese hamster V79 cells assessed as cell viability after 72 hrs by MTT assay
Format: cell-based
Conditions: Cricetulus griseus, V79, 72 h

In order of rising IC50:
1. CC1(C)OC2=C(C(=O)c3ccccc3C2=O)C1n1cc(C2CCCCC2)nn1 (configuration not stated)  6.12 µM
2. CCCCCCc1cn(C2C3=C(OC2(C)C)C(=O)c2ccccc2C3=O)nn1 (configuration not stated)  7.22 µM
3. CC1(C)OC2=C(C(=O)c3ccccc3C2=O)C1n1cc(-c2ccccc2)nn1 (configuration not stated)  7.62 µM

Tested on: not listed separately
Assay: Cytotoxicity against human Hs578T cells assessed as cell viability after 72 hrs by MTT assay
Format: functional, cell-based
Conditions: Hs-578T

In order of falling IC50:
1. CCCCCCc1cn(C2C3=C(OC2(C)C)C(=O)c2ccccc2C3=O)nn1 (configuration not stated)  8.28 µM
2. CC1(C)OC2=C(C(=O)c3ccccc3C2=O)C1n1cc(-c2ccccc2)nn1 (configuration not stated)  5.76 µM
3. CC1(C)OC2=C(C(=O)c3ccccc3C2=O)C1n1cc(C2CCCCC2)nn1 (configuration not stated)  4.95 µM

Tested on: L929
Assay: Cytotoxicity against mouse L929 cells assessed as cell viability after 72 hrs by MTT assay
Format: ADME, cell-based
Conditions: L929, 72 h

In order of falling IC50:
1. CC1(C)OC2=C(C(=O)c3ccccc3C2=O)C1n1cc(-c2ccccc2)nn1 (configuration not stated)  8.4 µM
2. CCCCCCc1cn(C2C3=C(OC2(C)C)C(=O)c2ccccc2C3=O)nn1 (configuration not stated)  8.3 µM
3. CC1(C)OC2=C(C(=O)c3ccccc3C2=O)C1n1cc(C2CCCCC2)nn1 (configuration not stated)  6.62 µM

Tested on: PBMC
Assay: Cytotoxicity against human PBMC assessed as cell viability after 72 hrs by MTT assay
Format: cell-based
Conditions: not given

In order of falling IC50:
1. CCCCCCc1cn(C2C3=C(OC2(C)C)C(=O)c2ccccc2C3=O)nn1 (configuration not stated)  9.01 µM
2. CC1(C)OC2=C(C(=O)c3ccccc3C2=O)C1n1cc(-c2ccccc2)nn1 (configuration not stated)  8.02 µM
3. CC1(C)OC2=C(C(=O)c3ccccc3C2=O)C1n1cc(C2CCCCC2)nn1 (configuration not stated)  7.36 µM

Tested on: HCT-116
Assay: Cytotoxicity against human HCT116 cells assessed as cell viability after 72 hrs by MTT assay
Format: functional, cell-based
Conditions: HCT-116, 72 h

In order of rising IC50:
1. CCCCCCc1cn(C2C3=C(OC2(C)C)C(=O)c2ccccc2C3=O)nn1 (configuration not stated)  4.88 µM
2. CC1(C)OC2=C(C(=O)c3ccccc3C2=O)C1n1cc(C2CCCCC2)nn1 (configuration not stated)  5.51 µM
3. CC1(C)OC2=C(C(=O)c3ccccc3C2=O)C1n1cc(-c2ccccc2)nn1 (configuration not stated)  8.27 µM
